Source: US6872725B2, “Solid-state forms of N-(2-hydroxyacetyl)-5-(4-piperidyl)-4-(4-pyrimidinyl)-3-(4-chlorophenyl) pyrazole” (Pharmacia Corporation, priority 2001, dated 2005)

Assays:
[1] = physical stability of solid-state forms at ambient temperatures; type: physicochemical; conditions: compared with the other solid-state forms of Compound 1
Description: In one embodiment, the invention comprises the Form I polymorph of Compound 1. […] Similarly, selection of a solid-state form of Compound 1 that is physically stable over a wide range of storage conditions (especially considering the different possible storage conditions that can occur during the lifetime of a Compound 1 product) can help avoid polymorphic or other degradative changes in the Compound 1 that can lead to product loss or deterioration of product efficacy.

[2] = slurry conversion of dihydrate crystals to Form I polymorph in tetrahydrofuran/water; type: physicochemical; conditions: 80:20 tetrahydrofuran/water mixture (volume basis), 25° C.
Procedure: The dihydrate crystalline form of Compound 1 also can be prepared, for example, by slurry conversion of the Form II polymorph in a tetrahydrofuran/water mixture. A sufficient amount of the Form II polymorph is added to an 80:20 tetrahydrofuran/water mixture (volume basis) to form a saturated solution at 25° C. The solution then spontaneously desaturates by precipitating dihydrate crystals. Once precipitated, the dihydrate crystals eventually convert to the more thermodynamically stable Form I polymorph.

| Structure (SMILES) | physical stability at ambient temperatures [1] | time before conversion to the more thermodynamically stable Form I polymorph [2] |
| --- | --- | --- |
| O=C(CO)N1CCC(c2[nH]nc(-c3ccc(Cl)cc3)c2-c2ccncn2)CC1 [Form I polymorph, N-(2-hydroxyacetyl)-5-(4-piperidyl)-4-(4-pyrimidinyl)-3-(4-chlorophenyl)pyrazole] | greater physical stability at ambient temperatures than the other solid-state forms of Compound 1 |  |
| O=C(CO)n1nc(-c2ccc(Cl)cc2)c(-c2ccncn2)c1C1CCNCC1 [dihydrate crystalline form, N-(2-hydroxyacetyl)-5-(4-piperidyl)-4-(4-pyrimidinyl)-3-(4-chlorophenyl)pyrazole] |  | does not take place for about four days |
